We go through 21 compounds from ChEMBL document CHEMBL1132829, “Synthesis of a statistically exhaustive fluorescent peptide substrate library for profiling protease specificity” (Bioorg Med Chem Lett, 2000).

Structures are written as SMILES. Where a SMILES comes first, the peptide text is derived from it. [ ]: non-standard residue; d: D form. The star is where a group is joined. AMC = Cc1cc(=O)oc2cc(N*)ccc12; Cha = N[CH](CC1CCCCC1)C(=O)O; MeOSuc = COC(=O)CCC(=O)*; Orn = NCCC[C@H](N)C(=O)O; Cbz = O=C(OCc1ccccc1)*; Boc = CC(C)(C)OC(=O)*; Ms = CS(=O)(=O)*

The target in the first assay is T1, Neutrophil elastase (Homo sapiens) (UniProt P08246).
T1 sequence (whole entry): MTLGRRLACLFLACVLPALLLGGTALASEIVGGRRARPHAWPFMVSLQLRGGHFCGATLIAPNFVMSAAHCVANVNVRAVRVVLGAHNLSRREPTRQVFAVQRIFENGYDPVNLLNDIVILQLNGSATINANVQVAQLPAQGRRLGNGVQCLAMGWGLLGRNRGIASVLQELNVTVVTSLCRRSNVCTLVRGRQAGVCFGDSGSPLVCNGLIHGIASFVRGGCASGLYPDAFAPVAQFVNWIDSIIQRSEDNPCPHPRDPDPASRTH
Put plainly: Compound was evaluated for its inhibitory activity against elastase at 100 uM concentration of substrate. Also noted: scale not given: the % may be the effect or the level left.
For the compound `CC(=O)N[C@@H](Cc1ccccc1)C(=O)N[C@H](C(=O)N[C@H](C(=O)Nc1ccc2c(C)cc(=O)oc2c1)C(C)C)[C@@H](C)O` (Ac-Phe-Thr-Val-{AMC}), the Control worked out at 1.6%. The same measure, in the same setting: as for `CC(=O)N[C@@H](Cc1ccccc1)C(=O)N[C@@H](CCC(=O)O)C(=O)N[C@H](C(=O)Nc1ccc2c(C)cc(=O)oc2c1)C(C)C` (Ac-Phe-Glu-Val-{AMC}), the figure is 1%; as for `COC(=O)CCC(=O)N[C@@H](C)C(=O)N[C@@H](C)C(=O)N1CCC[C@H]1C(=O)N[C@H](C(=O)Nc1ccc2c(C)cc(=O)oc2c1)C(C)C` (MeOSuc-AAPV-{AMC}), 100%; as for `CC(=O)N[C@@H](Cc1ccccc1)C(=O)N1CCC[C@H]1C(=O)N[C@H](C(=O)Nc1ccc2c(C)cc(=O)oc2c1)C(C)C` (Ac-Phe-Pro-Val-{AMC}), 11%.

As for `CC(=O)N[C@@H](Cc1ccccc1)C(=O)N1CCC[C@H]1C(=O)N[C@@H](C)C(=O)Nc1ccc2c(C)cc(=O)oc2c1` (Ac-Phe-Pro-Ala-{AMC}), the Control was 0.8%.

The target of the next assay is Coagulation factor X (Homo sapiens) (UniProt P00742). Put plainly: Compound was evaluated for its inhibitory activity against Coagulation factor X at 100 uM concentration of substrate. Set-up: scale not given: the % may be the effect or the level left.
Chain of Coagulation factor X (Homo sapiens) (P00742 41-179 limits assumed): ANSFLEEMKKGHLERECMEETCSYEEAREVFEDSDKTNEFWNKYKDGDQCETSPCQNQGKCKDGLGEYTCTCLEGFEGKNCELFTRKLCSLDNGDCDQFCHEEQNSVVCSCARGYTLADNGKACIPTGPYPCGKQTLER
Chain of Coagulation factor X (Homo sapiens) (P00742 235-488 limits assumed): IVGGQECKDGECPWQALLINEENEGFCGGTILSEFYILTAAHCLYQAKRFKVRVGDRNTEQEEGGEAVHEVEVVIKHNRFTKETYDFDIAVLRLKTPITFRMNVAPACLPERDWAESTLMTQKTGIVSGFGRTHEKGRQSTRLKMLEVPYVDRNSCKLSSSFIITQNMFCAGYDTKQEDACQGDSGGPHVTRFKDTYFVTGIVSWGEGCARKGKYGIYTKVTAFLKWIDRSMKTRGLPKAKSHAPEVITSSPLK
In turn, `Cc1cc(=O)oc2cc(NC(=O)C(CCCN=C(N)N)NC(=O)CNC(=O)C(CC3CCCCC3)NS(C)(=O)=O)ccc12` (stereo not drawn) (Ms-[Cha]-Gly-Arg-{AMC}; configuration not given here) registered a Control of 100%. The same measure, in the same setting: as for `CC(=O)N[C@@H](Cc1ccccc1)C(=O)N[C@@H](Cc1ccc(O)cc1)C(=O)N[C@@H](CCCN=C(N)N)C(=O)Nc1ccc2c(C)cc(=O)oc2c1` (Ac-Phe-Tyr-Arg-{AMC}), the figure is 1.1%.

The target of another assay is Cathepsin B (Homo sapiens) (UniProt P07858). Put plainly: Compound was evaluated for its inhibitory activity against cathepsin B at 100 uM concentration of substrate. Set-up: scale not given: the % may be the effect or the level left.
The compound `CSCC[C@H](NC(=O)[C@H](Cc1ccccc1)NC(C)=O)C(=O)N[C@@H](CCCCN)C(=O)Nc1ccc2c(C)cc(=O)oc2c1` (Ac-Phe-Met-Lys-{AMC}) returned a Control of 18%.

Take `CC(=O)N[C@@H](Cc1ccccc1)C(=O)N[C@@H](CCCN)C(=O)N[C@@H](CCCN=C(N)N)C(=O)Nc1ccc2c(C)cc(=O)oc2c1` (Ac-Phe-[Orn]-Arg-{AMC}): the Control stood at 18%.

For the compound `CC(=O)N[C@@H](Cc1ccccc1)C(=O)N[C@@H](CCCCN)C(=O)N[C@@H](CCCN=C(N)N)C(=O)Nc1ccc2c(C)cc(=O)oc2c1` (Ac-Phe-Lys-Arg-{AMC}), the Control was found to be 43%. The same measure, in the same setting: as for `CC(=O)N[C@@H](Cc1ccccc1)C(=O)N[C@@H](CCCN=C(N)N)C(=O)N[C@@H](CCCN=C(N)N)C(=O)Nc1ccc2c(C)cc(=O)oc2c1` (Ac-Phe-Arg-Arg-{AMC}), the figure is 46%; as for `Cc1cc(=O)oc2cc(NC(=O)[C@H](CCCN=C(N)N)NC(=O)[C@H](CCCCN)NC(=O)[C@H](CC(C)C)NC(=O)OC(C)(C)C)ccc12` (Boc-Leu-Lys-Arg-{AMC}), 100%; as for `CC(=O)N[C@@H](Cc1ccccc1)C(=O)N[C@H](C(=O)N[C@@H](CCCCN)C(=O)Nc1ccc2c(C)cc(=O)oc2c1)C(C)C` (Ac-Phe-Val-Lys-{AMC}), 23%. The same measure, in the same setting: as for `CC(=O)N[C@@H](Cc1ccccc1)C(=O)N[C@@H](CCCN)C(=O)N[C@@H](CCCCN)C(=O)Nc1ccc2c(C)cc(=O)oc2c1` (Ac-Phe-[Orn]-Lys-{AMC}), the figure is 21%; as for `CC(=O)N[C@@H](Cc1ccccc1)C(=O)N[C@@H](CCCN=C(N)N)C(=O)N[C@@H](CCCCN)C(=O)Nc1ccc2c(C)cc(=O)oc2c1` (Ac-Phe-Arg-Lys-{AMC}), 37%.

The target in another assay is Urokinase-type plasminogen activator (Homo sapiens) (UniProt P00749). Kind of assay: Compound was evaluated for its inhibitory activity against urokinase at 100 uM concentration of substrate. Set-up: scale not given: the % may be the effect or the level left.
Turning to `CC(=O)NC(Cc1ccccc1)C(=O)NCC(=O)NC(CCCN=C(N)N)C(=O)Nc1ccc2c(C)cc(=O)oc2c1` (stereo not drawn) (Ac-Phe-Gly-Arg-{AMC}; configuration not given here), the Control stood at 3.9%.

Regarding `CC(=O)N[C@@H](Cc1ccccc1)C(=O)N[C@@H](C)C(=O)N[C@@H](CCCN=C(N)N)C(=O)Nc1ccc2c(C)cc(=O)oc2c1` (Ac-Phe-Ala-Arg-{AMC}), the Control is 2%. In turn, `CC(=O)N[C@@H](Cc1ccccc1)C(=O)N[C@@H](CO)C(=O)N[C@@H](CCCN=C(N)N)C(=O)Nc1ccc2c(C)cc(=O)oc2c1` (Ac-Phe-Ser-Arg-{AMC}) showed a Control of 4.2%. The compound `Cc1cc(=O)oc2cc(NC(=O)C(CCCN=C(N)N)NC(=O)CNC(=O)C(N)CCC(=O)O)ccc12` (stereo not drawn) (H-Glu-Gly-Arg-{AMC}; configuration not given here) yielded a Control of 100%.

In a further assay the target is Prothrombin (Homo sapiens) (UniProt P00734). Put plainly: Compound was evaluated for its inhibitory activity against thrombin at 100 uM concentration of substrate. Set-up: scale not given: the % may be the effect or the level left.
Regarding `Cc1cc(=O)oc2cc(NC(=O)[C@H](CCCN=C(N)N)NC(=O)[C@@H]3CCCN3C(=O)CNC(=O)OCc3ccccc3)ccc12` (Cbz-Gly-Pro-Arg-{AMC}), the Control came to 100%. Regarding `CC(=O)N[C@@H](Cc1ccccc1)C(=O)N1CCC[C@H]1C(=O)NC(CCCN=C(N)N)C(=O)Nc1ccc2c(C)cc(=O)oc2c1` (stereo partly specified), the Control came to 5.4%.
